System: RAW264.7 cells
Assay: Proliferation assay of macrophages treated with TNF-α (SRB)
Assay type: cell-based, mouse
Conditions: 100 ng/ml TNF-α and 50 μg/ml peptide, 72 hours
Experimental: The mouse macrophage cell line, raw 264.7 cells were seeded on a 48-well plate at a density of 1×10^4 cells/well. After stabilization for 24 hours, the cells were incubated in a serum-free medium for 6 hours, and then simultaneously treated with 100 ng/ml TNF-α and 50 μg/ml peptide, followed by incubation for 72 hours. After the completion of the incubation, the supernatant was removed and the cells were immobilized using ethanol, and after the cell immobilization was ended, the cells were washed three times with phosphate buffer saline (PBS). After the wash solution was removed, the cells were treated with colorimetric SRB solution, and sufficiently washed with 1% acetic acid. Then, the cells were observed using a microscope to observe the conditions of living cells. The absorbance for the solution decolorized with 20 mM tris was read at UV light of 560 nm, thereby measuring the survival conditions of cells.

## NH2-Ala-Cys-Arg-Ser-Ala-Ile-Gly-Arg-Pro-Cys-COOH (H-ACRSAIGRPC-OH; cysteine pairing not given here) [SEQ ID NO: 1]
  proliferation of RAW264.7 cells increased with TNF-α treatment: reduced

— patent US10238710B2, “Peptide having anti-inflammatory, osteogenic and hair growth promoting activities, and use of same” (CAREGEN CO., LTD., priority 2014, dated 2019)
